Series [1] has as its system HCT 116 (Colorectal Cancer). The series is described as follows: Monolayer assay (CCK-8 cytotoxicity). The class given is cell-based, human. As to conditions: HCT116, Table 6, read-out: IC50 (μM) in different cancer cell lines: HCT116. On the procedure: (§1) The assays were designed as in the reference, BMC Cancer, 2010, 10, 610, 1-11; the disclosure of which is incorporated by reference for the teaching of the assay.
(§2) Human tumour cell lines: Panc-1 (Pancreatic Cancer), HCT 116 (Colorectal Cancer), ACHN (Renal Cell Carcinoma), Calu-1 (Lung Carcinoma), MiaPaca2 (Pancreatic Cancer), FADU (Head and Neck Cancer), PC3 (prostate Cancer), G361 (Melanoma), MDA-MB435S (Melanoma), HeLa (Cervical Cancer) were grown in Minimal Essential Media with Eagle's Basal Salts (MEM-EBS) obtained from AMIMED (BioConcept-Switzerland). Tumour cell lines: MDA-MB231 (Breast Cancer), JURKAT (T cell leukaemia), H460 (Small Cell Lung Cancer) were cultured in RPMI 1640 (AMIMED, BioConcept, Switzerland) medium. All tumour cell lines were supplemented with 10% Foetal Bovine Serum (FBS) (GIBCO), 1% Penicillin/Streptomycin (Sigma) and 1% Anti-Anti (GIBCO) and grown in T-175 tissue culture flasks (Nunc). MCF-10A, a non-tumourigenic cell line, was cultured in Mammary Epithelial Basal Medium (MEBM) with all standard additions (Lonza, Catalog. No. CC-3150). All cells were grown in 5% CO2 incubator at 37° C. Cells were passaged at 80-90% confluence. Adherent cells were trypsinised using Trypsin-EDTA (Sigma) and maintained. All cell lines were purchased from ATCC (Rockville, Md., USA).
(§3) Compound of Formula (1a) [described in example 7] was dissolved in DMSO to give a required stock solution of 20 mM. Eight different concentrations of the compound of Formula (1a) were prepared by serial dilution of stock solution finally resulting in a (compared to the test concentration) 200-fold higher concentration. Compound of Formula (1a) was tested at the concentration of 0.0001 μM, 0.001 μM, 0.01 μM, 0.03 μM, 0.1 μM, 0.3 μM, 1 μM and 3 μM respectively. Each concentration was evaluated in triplicate.
(§4) Method for determination of IC50 of the compound of Formula (1a): • a) Different cancer/normal cells were seeded at a density of 3000 cells/200 μL well, in a tissue culture grade 96 well plate and allowed them to recover for 24 hrs in a humidified 5±0.2% CO2 incubator at 37±0.5° C. • b) After 24 hrs, 1 μL of 200× (200 times higher than required concentration is denoted as 200×) compound of Formula (1a), dissolved in DMSO, was added to the above tissue culture plate seeded with cancer/normal cells. The final concentration of DMSO was 0.5% in wells. DMSO was used as a vehicle control. • c) After 24 hrs the plate was removed from CO2 incubator and 5 μL of CCK-8 (Dojindo Molecular Technologies, Inc. USA, catalog, no. CK04-20) per well was added. • d) The plate was then placed at 37° C. for 2 hrs. • e) The absorbance was recorded at 450 nm. • f) The percent cytotoxicity was calculated using the following formula
(§5) The IC50 value was estimated by visual inspection of the concentration-effect curve. For calculation of mean IC50 values over the fourteen cell lines as tested, the geometric mean was selected.
(§6) The assays were designed as described above in example 16.
(§7) The IC50 value was estimated by visual inspection of the concentration-effect curve. For calculation of mean IC50 values over the six cell lines (PC3, MDA MB, HCT116, MCF7, MIAPaCa2, MCF10A) as tested, the geometric mean was selected.

Series [2] relates to MDA-MB231 (Breast Cancer). The series is described as follows: Monolayer assay (CCK-8 cytotoxicity). Format: cell-based, human. As to conditions: MDA MB-231, Table 6, read-out: IC50 (μM) in different cancer cell lines: MDA MB-231. On the procedure:
as §1, §2, §3, §4, §5, §6, §7

The next series has as its system different cancer cells. The series is described as follows: Monolayer assay, range over the cancer cell lines tested. Format: cell-based. The note with it: Homo sapiens; range over the cancer cell lines of Table 6. How it is done:
as §1, §2, §3, §4, §5, §6, §7

For the next series, the system named is MCF7. The experiment in a line: Monolayer assay (CCK-8 cytotoxicity). The class given is cell-based. The note with it: Table 6, read-out: IC50 (μM) in different cancer cell lines: MCF7. How it is done: as §1, §4, §6, §7
Series [3] deals with MCF-10A, a non-tumourigenic cell line. The series is described as follows: Monolayer assay (CCK-8 cytotoxicity), normal cells. The note with it: Table 6. Format: cell-based. On the procedure:
as §1, §2, §3, §4, §5, §6, §7

The subject of the next series is PC3 (prostate Cancer). The series is described as follows: Monolayer assay (CCK-8 cytotoxicity). The class given is cell-based, human. The note with it: PC3, Table 6, read-out: IC50 (μM) in different cancer cell lines: PC3. How it is done: as §1, §2, §3, §4, §5, §6, §7
The nature of series [4]: Solubility (physical properties). The class given is physicochemical.
[5] abbreviates: Homo sapiens, MCF-10A, read-out: IC50 (μM) in different cancer cell lines: MCF10A, MCF10A normal cells.
The mark [6] stands for this setting: read-out: IC50 (μM) in different cancer cell lines: MCF10A, MCF10A normal cells.
The mark [7] stands for this setting: MCF10A normal cells, read-out: IC50 (μM) in different cancer cell lines: MCF10A.

The record followed here is patent publication US9475842B2, “Hexadepsipeptide analogues as anticancer compounds” (PIRAMAL ENTERPRISES LIMITED, priority 2012, dated 2016).

Where two headings read alike, the source gives them in different places.

For `CC(C)CC1CCC(O)(C(C)(O)C(=O)NC2C(=O)N3N=CCCC3C(=O)N(O)C(C)C(=O)NCC(=O)N3N=CCCC3C(=O)N(O)C(C)C(=O)OC2C(C)C)OC1C` (stereo not shown) [Compound 5, N-(6,18-dihydroxy-22-isopropyl-7,19-dimethyl-5,8,11,17,20,24-hexaoxo-3,4,4a,5,6,7,8,9,10,11,15,16,16a,17,18,19,20,22,23,24-icosahydrodipyridazino[6,1-f:6′,1′-o][1,4,7,10,13,16]oxapentaazacyclononadecin-23-yl)-2-hydroxy-2-(2-hydroxy-5-isobutyl-6-methyltetrahydro-2H-pyran-2-yl)propanamide], the IC50 in series [1] (Homo sapiens, HCT-116) is less than 0.01 µM; in series [2] (Homo sapiens) it was 0.012 µM; with different cancer cells, 9 to 1040 nM; in the series with MCF7 (Homo sapiens), 0.018 µM; in series [3] (setting [5]), 0.01 to 0.83 µM; in series [3] (setting [6]), less than 0.01 µM.
For `CON1C(=O)C2CCCNN2C(=O)C(NC(=O)C(C)(O)C2(O)CCC(CC(C)C)C(C)O2)C(C(C)C)OC(=O)C(C)N(OC)C(=O)C2CCCNN2C(=O)CNC(=O)C1C` (stereo not shown) [Compound 2, 2-hydroxy-2-(2-hydroxy-5-isobutyl-6-methyltetrahydro-2H-pyran-2-yl)-N-(22-isopropyl-6,18-dimethoxy-7,19-dimethyl-5,8,11,17,20,24-hexaoxotetracosahydrodipyridazino[6,1-f:6′,1′-o][1,4,7,10,13,16]oxapentaazacyclononadecin-23-yl)propanamide], the IC50 in the series with PC3 (prostate Cancer) (Homo sapiens) was 1.04 µM; in series [1] (Homo sapiens, HCT-116), 0.635 µM; in series [2] (Homo sapiens), 0.8 µM; in the series with different cancer cells, 9 to 1040 nM; in the series with MCF7 (Homo sapiens) it was 0.826 µM; in series [3] (setting [6]), 0.691 µM.
Turning to `CON1C(=O)C2CCCNN2C(=O)C(NC(=O)C(C)(O)C2(O)CCC(CC(C)C)C(C)O2)C(C(C)C)OC(=O)C(C)N(O)C(=O)C2CCCNN2C(=O)CNC(=O)C1C` (stereo not shown) [Compound 1, 2-hydroxy-N-(18-hydroxy-22-isopropyl-6-methoxy-7,19-dimethyl-5,8,11,17,20,24-hexaoxotetracosahydrodipyridazino[6,1-f:6′,1′-o][1,4,7,10,13,16]oxapentaazacyclononadecin-23-yl)-2-(2-hydroxy-5-isobutyl-6-methyltetrahydro-2H-pyran-2-yl) propanamide], the IC50 with PC3 (prostate Cancer) stood at 0.502 µM; in series [1], 0.287 µM; in series [2] it was 0.293 µM; in the series with MCF7 it was 0.355 µM; in series [3] (setting [7]), 0.247 µM.
`CC(C)CC1CCC(O)(C(C)(O)C(=O)NC2C(=O)N3N=CCCC3C(=O)N(O)C(C)C(=O)NCC(=O)N3NCCCC3C(=O)N(O)C(C)C(=O)OC2C(C)C)OC1C` (stereo not shown) [Formula (1b), N-(6,18-dihydroxy-22-isopropyl-7,19-dimethyl-5,8,11,17,20,24-hexaoxo-3,4,4a,5,6,7,8,9, 10,11,13,14,15, 16,16a, 17,18,19,20,22,23,24-docosahydrodipyridazino[6,1-f:6′,1′-o][1,4,7,10, 13,16]oxapentaazacyclononadecin-23-yl)-2-hydroxy-2-(2-hydroxy-5-isobutyl-6-methyltetra hydro-2H-pyran-2-yl)propanamide]: the concentration for half-maximal inhibition (IC50) in the series with PC3 (prostate Cancer) (Homo sapiens) was 0.035 µM; in series [1] (Homo sapiens, HCT-116), 0.032 µM; in series [2] (Homo sapiens), 0.018 µM; with different cancer cells, 18 to 71 nM; with MCF7 (Homo sapiens), 0.071 µM; in series [3] (setting [5]) it was 0.03 µM. Moreover, the “Solubility in organic solvents” value in series [4] (chloroform, ethyl acetate and methanol) is “Soluble in chloroform, ethyl acetate and methanol and”. In addition, the Solubility in water result in series [4] (water) was “insoluble in water”.
As for `CC(C)CC1CCC(O)(C(C)(O)C(=O)NC2C(=O)N3NCCCC3C(=O)N(OC(=O)CCNC(=O)OCc3ccccc3)C(C)C(=O)NCC(=O)N3NCCCC3C(=O)N(O)C(C)C(=O)OC2C(C)C)OC1C` (stereo not shown) [Compound 3, 18-hydroxy-23-(2-hydroxy-2-(2-hydroxy-5-isobutyl-6-methyltetrahydro-2H-pyran-2-yl)propanamido)-22-isopropyl-7,19-dimethyl-5,8,11,17,20,24-hexa oxoicosahydrodipyridazino[6,1-f:6′,1′-o][1,4,7,10,13,16]oxapentaazacyclononadecin-6(7H,13H,22H)-yl 3-(((benzyloxy)carbonyl)amino)propanoate], the IC50 in the series on PC3 (prostate Cancer) (Homo sapiens) is 0.044 µM; in series [1] (Homo sapiens, HCT-116), 0.009 µM; in series [2] (Homo sapiens), 0.03 µM; with different cancer cells, 9 to 1040 nM; with MCF7 (Homo sapiens), 0.025 µM; in series [3] (setting [6]) it was 0.031 µM.
On to `CC(=O)ON1C(=O)C2CCCNN2C(=O)C(NC(=O)C(C)(O)C2(O)CCC(CC(C)C)C(C)O2)C(C(C)C)OC(=O)C(C)N(O)C(=O)C2CCCNN2C(=O)CNC(=O)C1C` (stereo not shown) [Compound 7, 18-hydroxy-23-(2-hydroxy-2-(2-hydroxy-5-isobutyl-6-methyltetra hydro-2H-pyran-2-yl)propanamido)-22-isopropyl-7,19-dimethyl-5,8,11,17,20,24-hexaoxo icosahydrodipyridazino[6,1-f:6′,1′-o[]1,4,7,10,13,16]oxapentaazacyclononadecin-6(7H,13H,22H)-yl acetate], for which the IC50 is 0.36 µM in the series on PC3 (prostate Cancer); 0.257 µM in series [1]; 0.32 µM in series [2]; 0.843 µM in the series with MCF7; 0.83 µM in series [3] (setting [7]).
As to `CC(C)CC1CCC(O)(C(C)(O)C(=O)NC2C(=O)N3NCCCC3C(=O)NC(C)C(=O)NCC(=O)N3NCCCC3C(=O)NC(C)C(=O)OC2C(C)C)OC1C` (stereo not shown) [Compound 6, 2-hydroxy-2-(2-hydroxy-5-isobutyl-6-methyltetrahydro-2H-pyran-2-yl)-N-(22-isopropyl-7,19-dimethyl-5,8,11,17,20,24-hexaoxotetracosahydrodipyridazino[6,1-f:6′,1′-o][1,4,7,10,13,16]oxapentaazacyclononadecin-23-yl)propanamide], the IC50 with PC3 (prostate Cancer) (Homo sapiens) was 0.998 µM; in series [1] (Homo sapiens, HCT-116), 0.284 µM; in series [2] (Homo sapiens), 0.343 µM; in the series on different cancer cells, 9 to 1040 nM; in the series with MCF7 (Homo sapiens) it was 0.977 µM; in series [3] (setting [6]), 0.819 µM.
Turning to `CC(C)CC1CCC(O)(C(C)(O)C(=O)NC2C(=O)N3NCCCC3C(=O)N(OC(=O)CCN)C(C)C(=O)NCC(=O)N3NCCCC3C(=O)N(O)C(C)C(=O)OC2C(C)C)OC1C` (stereo not shown) [Compound 4, 18-hydroxy-23-(2-hydroxy-2-(2-hydroxy-5-isobutyl-6-methyltetra hydro-2H-pyran-2-yl)propanamido)-22-isopropyl-7,19-dimethyl-5,8,11,17,20,24-hexaoxo icosahydrodipyridazino[6,1-f:6′,1′-o][1,4,7,10,13,16]oxapentaazacyclononadecin-6(7H,13H,22H)-yl 3-aminopropanoate], the IC50 in series [1] is 0.17 µM; in series [2], 0.2 µM; in the series with MCF7, 0.03 µM; in series [3] (setting [7]), less than 0.3 µM.

In general, IC50 refers to the midpoint of a concentration-inhibition curve.
